Target: Aβ42 (Homo sapiens, UniProt P05067)
Assay: Th-T (thioflavin-T) assay of Aβ42 aggregation
Format: biochemical
Details: for Th-T assay plate reading, mean of three wells (Supplementary Fig. 47): source data, Ab alone and No Ab as controls

Chain of Aβ42 (P05067 672-713): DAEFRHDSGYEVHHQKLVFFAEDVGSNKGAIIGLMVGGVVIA

Th-T fluorescence, mean of three wells (Aβ42 aggregation time course, reading M117): 2.942
Th-T fluorescence, mean of three wells (Aβ42 aggregation time course, reading M118): 2.9616
Th-T fluorescence, mean of three wells (Aβ42 aggregation time course, reading M119): 2.929
Th-T fluorescence, mean of three wells (Aβ42 aggregation time course, reading M120): 2.963
Th-T fluorescence, mean of three wells (Aβ42 aggregation time course, reading M121): 2.95
Th-T fluorescence, mean of three wells (Aβ42 aggregation time course, reading M122): 2.943
Th-T fluorescence, mean of three wells (Aβ42 aggregation time course, reading M123): 2.95
Th-T fluorescence, mean of three wells (Aβ42 aggregation time course, reading M124): 2.945
Th-T fluorescence, mean of three wells (Aβ42 aggregation time course, reading M125): 2.938
Th-T fluorescence, mean of three wells (Aβ42 aggregation time course, reading M126): 2.934
Th-T fluorescence, mean of three wells (Aβ42 aggregation time course, reading M127): 2.935
Th-T fluorescence, mean of three wells (Aβ42 aggregation time course, reading M128): 2.947
Th-T fluorescence, mean of three wells (Aβ42 aggregation time course, reading M129): 2.9294
Th-T fluorescence, mean of three wells (Aβ42 aggregation time course, reading M130): 2.914
Th-T fluorescence, mean of three wells (Aβ42 aggregation time course, reading M131): 2.934
Th-T fluorescence, mean of three wells (Aβ42 aggregation time course, reading M132): 2.934
Th-T fluorescence, mean of three wells (Aβ42 aggregation time course, reading M133): 2.945
Th-T fluorescence, mean of three wells (Aβ42 aggregation time course, reading M134): 2.942
Th-T fluorescence, mean of three wells (Aβ42 aggregation time course, reading M135): 2.931
Th-T fluorescence, mean of three wells (Aβ42 aggregation time course, reading M136): 2.912
Th-T fluorescence, mean of three wells (Supplementary Fig. 47, reading M137): 2.914
Th-T fluorescence, mean of three wells (Supplementary Fig. 47, reading M138): 2.931
Th-T fluorescence, mean of three wells (Supplementary Fig. 47, reading M139): 2.919
Th-T fluorescence, mean of three wells (Supplementary Fig. 47, reading M140): 2.936
Th-T fluorescence, mean of three wells (Supplementary Fig. 47, reading M141): 2.944
Th-T fluorescence, mean of three wells (Supplementary Fig. 47, reading M142): 2.9414
Th-T fluorescence, mean of three wells (Supplementary Fig. 47, reading M143): 2.941
Th-T fluorescence, mean of three wells (Supplementary Fig. 47, reading M144): 2.932
Th-T fluorescence, mean of three wells (Supplementary Fig. 47, reading M145): 2.925
Th-T fluorescence, mean of three wells (Supplementary Fig. 47 source data, measurement M37 of time course): 2.747
Th-T fluorescence, mean of three wells (Supplementary Fig. 47 source data, measurement M38 of time course): 2.734
Th-T fluorescence, mean of three wells (Supplementary Fig. 47 source data, measurement M39 of time course): 2.741
Th-T fluorescence, mean of three wells (Supplementary Fig. 47 source data, measurement M40 of time course): 2.757
Th-T fluorescence, mean of three wells (Supplementary Fig. 47 source data, measurement M41 of time course): 2.789
Th-T fluorescence, mean of three wells (Supplementary Fig. 47 source data, measurement M42 of time course): 2.791
Th-T fluorescence, mean of three wells (Supplementary Fig. 47 source data, measurement M43 of time course): 2.8204
Th-T fluorescence, mean of three wells (Supplementary Fig. 47 source data, measurement M44 of time course): 2.818
Th-T fluorescence, mean of three wells (Supplementary Fig. 47 source data, measurement M45 of time course): 2.833
Th-T fluorescence, mean of three wells (Supplementary Fig. 47 source data, measurement M46 of time course): 2.86
Th-T fluorescence, mean of three wells (Supplementary Fig. 47 source data, measurement M47 of time course): 2.867
Th-T fluorescence, mean of three wells (Supplementary Fig. 47 source data, measurement M48 of time course): 2.874
Th-T fluorescence, mean of three wells (Supplementary Fig. 47 source data, measurement M49 of time course): 2.883
Th-T fluorescence, mean of three wells (Supplementary Fig. 47 source data, measurement M50 of time course): 2.863
Th-T fluorescence, mean of three wells (Supplementary Fig. 47 source data, measurement M51 of time course): 2.8662
Th-T fluorescence, mean of three wells (Supplementary Fig. 47 source data, measurement M52 of time course): 2.876
Th-T fluorescence, mean of three wells (Supplementary Fig. 47 source data, measurement M53 of time course): 2.889
Th-T fluorescence, mean of three wells (Supplementary Fig. 47 source data, measurement M54 of time course): 2.875
Th-T fluorescence, mean of three wells (Supplementary Fig. 47 source data, measurement M55 of time course): 2.914
Th-T fluorescence, mean of three wells (Supplementary Fig. 47 source data, measurement M56 of time course): 2.914
Th-T assay plate reading, mean of three wells (Supplementary Fig. 47) (measurement M1): 0.5144
Th-T assay plate reading, mean of three wells (Supplementary Fig. 47) (measurement M2): 0.4337
Th-T assay plate reading, mean of three wells (Supplementary Fig. 47) (measurement M3): 0.4376
Th-T assay plate reading, mean of three wells (Supplementary Fig. 47) (measurement M4): 0.4602
Th-T assay plate reading, mean of three wells (Supplementary Fig. 47) (measurement M5): 0.5047
Th-T assay plate reading, mean of three wells (Supplementary Fig. 47) (measurement M6): 0.5652
Th-T assay plate reading, mean of three wells (Supplementary Fig. 47) (measurement M7): 0.6146
Th-T assay plate reading, mean of three wells (Supplementary Fig. 47) (measurement M8): 0.6765
Th-T assay plate reading, mean of three wells (Supplementary Fig. 47) (measurement M9): 0.8275
Th-T assay plate reading, mean of three wells (Supplementary Fig. 47) (measurement M10): 1.067
Th-T assay plate reading, mean of three wells (Supplementary Fig. 47) (measurement M11): 1.395
Th-T assay plate reading, mean of three wells (Supplementary Fig. 47) (measurement M12): 1.75
Th-T assay plate reading, mean of three wells (Supplementary Fig. 47) (measurement M13): 2.113
Th-T assay plate reading, mean of three wells (Supplementary Fig. 47) (measurement M14): 2.291
Th-T assay plate reading, mean of three wells (Supplementary Fig. 47) (measurement M15): 2.38
Th-T assay plate reading, mean of three wells (Supplementary Fig. 47) (measurement M16): 2.421
Th-T fluorescence, mean of three wells (reading M17, Supplementary Fig. 47 source data): 2.473
Th-T fluorescence, mean of three wells (reading M18, Supplementary Fig. 47 source data): 2.4977
Th-T fluorescence, mean of three wells (reading M19, Supplementary Fig. 47 source data): 2.533
Th-T fluorescence, mean of three wells (reading M20, Supplementary Fig. 47 source data): 2.556
Th-T fluorescence, mean of three wells (reading M21, Supplementary Fig. 47 source data): 2.585
Th-T fluorescence, mean of three wells (reading M22, Supplementary Fig. 47 source data): 2.595
Th-T fluorescence, mean of three wells (reading M23, Supplementary Fig. 47 source data): 2.641
Th-T fluorescence, mean of three wells (reading M24, Supplementary Fig. 47 source data): 2.62
Th-T fluorescence, mean of three wells (reading M25, Supplementary Fig. 47 source data): 2.6309
Th-T fluorescence, mean of three wells (reading M26, Supplementary Fig. 47 source data): 2.664
Th-T fluorescence, mean of three wells (reading M27, Supplementary Fig. 47 source data): 2.655
Th-T fluorescence, mean of three wells (reading M28, Supplementary Fig. 47 source data): 2.667
Th-T fluorescence, mean of three wells (reading M29, Supplementary Fig. 47 source data): 2.665
Th-T fluorescence, mean of three wells (reading M30, Supplementary Fig. 47 source data): 2.687
Th-T fluorescence, mean of three wells (reading M31, Supplementary Fig. 47 source data): 2.687
Th-T fluorescence, mean of three wells (reading M32, Supplementary Fig. 47 source data): 2.686
Th-T fluorescence, mean of three wells (reading M33, Supplementary Fig. 47 source data): 2.738
Th-T fluorescence, mean of three wells (reading M34, Supplementary Fig. 47 source data): 2.752
Th-T fluorescence, mean of three wells (reading M35, Supplementary Fig. 47 source data): 2.742
Th-T fluorescence, mean of three wells (reading M36, Supplementary Fig. 47 source data): 2.736
Th-T fluorescence, mean of three wells (time course, reading M57): 2.932
Th-T fluorescence, mean of three wells (time course, reading M58): 2.915
Th-T fluorescence, mean of three wells (time course, reading M59): 2.925
Th-T fluorescence, mean of three wells (time course, reading M60): 2.927
Th-T fluorescence, mean of three wells (time course, reading M61): 2.927
Th-T fluorescence, mean of three wells (time course, reading M62): 2.927
Th-T fluorescence, mean of three wells (time course, reading M63): 2.935
Th-T fluorescence, mean of three wells (time course, reading M64): 2.936
Th-T fluorescence, mean of three wells (time course, reading M65): 2.95
Th-T fluorescence, mean of three wells (time course, reading M66): 2.938
Th-T fluorescence, mean of three wells (time course, reading M67): 2.956
Th-T fluorescence, mean of three wells (time-course reading M97, Supplementary Fig. 47 source data): 2.938
Th-T fluorescence, mean of three wells (time-course reading M98, Supplementary Fig. 47 source data): 2.952
Th-T fluorescence, mean of three wells (time-course reading M99, Supplementary Fig. 47 source data): 2.942
Th-T fluorescence, mean of three wells (time-course reading M100, Supplementary Fig. 47 source data): 2.953
Th-T fluorescence, mean of three wells (time-course reading M101, Supplementary Fig. 47 source data): 2.966
Th-T fluorescence, mean of three wells (time-course reading M102, Supplementary Fig. 47 source data): 2.943
Th-T fluorescence, mean of three wells (time-course reading M103, Supplementary Fig. 47 source data): 2.949
Th-T fluorescence, mean of three wells (time-course reading M104, Supplementary Fig. 47 source data): 2.951
Th-T fluorescence, mean of three wells (time-course reading M105, Supplementary Fig. 47 source data): 2.946
Th-T fluorescence, mean of three wells (time-course reading M106, Supplementary Fig. 47 source data): 2.949
Th-T fluorescence, mean of three wells (time-course reading M107, Supplementary Fig. 47 source data): 2.931
Th-T fluorescence, mean of three wells (time-course reading M108, Supplementary Fig. 47 source data): 2.953
Th-T fluorescence, mean of three wells (time-course reading M109, Supplementary Fig. 47 source data): 2.942
Th-T fluorescence, mean of three wells (time-course reading M110, Supplementary Fig. 47 source data): 2.939
Th-T fluorescence, mean of three wells (time-course reading M111, Supplementary Fig. 47 source data): 2.961
Th-T fluorescence, mean of three wells (time-course reading M112, Supplementary Fig. 47 source data): 2.955
Th-T fluorescence, mean of three wells (time-course reading M113, Supplementary Fig. 47 source data): 2.9565
Th-T fluorescence, mean of three wells (time-course reading M114, Supplementary Fig. 47 source data): 2.9516
Th-T fluorescence, mean of three wells (time-course reading M115, Supplementary Fig. 47 source data): 2.943
Th-T fluorescence, mean of three wells (time-course reading M116, Supplementary Fig. 47 source data): 2.94
SMILES: CC(C)=CCC/C(C)=C/CC/C(C)=C/CC/C(C)=C/Cc1c(O)c(C)c(C)oc1=O [Compound 2]

Source: publication PMC7156458, “Synthetic biology based construction of biological activity-related library of fungal decalin-containing diterpenoid pyrones” (Nature Communications, 2020)
